According to BindingDB's records for PubMed 36324498 (Yangtze University, 2022):
pIC50: −log10 of the molar value.

Target: Tyrosine-protein kinase Tec (Homo sapiens) (UniProt P42680)
Assay: Inhibition of TEC (unknown origin)

Sequence of Tyrosine-protein kinase Tec (Homo sapiens) (P42680 whole entry, looked up): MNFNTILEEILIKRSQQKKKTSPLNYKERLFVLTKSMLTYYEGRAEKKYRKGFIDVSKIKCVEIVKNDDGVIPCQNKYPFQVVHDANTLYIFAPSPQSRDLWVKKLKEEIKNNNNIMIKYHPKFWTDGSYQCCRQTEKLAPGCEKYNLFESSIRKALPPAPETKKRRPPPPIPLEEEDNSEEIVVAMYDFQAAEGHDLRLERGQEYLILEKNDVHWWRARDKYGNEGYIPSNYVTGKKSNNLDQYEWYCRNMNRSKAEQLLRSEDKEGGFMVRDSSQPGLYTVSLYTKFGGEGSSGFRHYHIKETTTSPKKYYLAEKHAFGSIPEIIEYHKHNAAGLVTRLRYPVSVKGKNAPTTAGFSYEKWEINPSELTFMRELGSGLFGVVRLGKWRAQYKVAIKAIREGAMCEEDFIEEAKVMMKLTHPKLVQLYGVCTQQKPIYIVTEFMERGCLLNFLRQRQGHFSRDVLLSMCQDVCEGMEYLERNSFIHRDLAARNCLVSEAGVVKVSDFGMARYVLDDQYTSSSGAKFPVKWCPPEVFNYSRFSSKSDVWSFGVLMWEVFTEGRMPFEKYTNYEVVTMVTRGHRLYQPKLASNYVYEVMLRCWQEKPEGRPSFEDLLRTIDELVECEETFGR

pIC50: 8.92
Structure (SMILES): N#CN1CCC[C@@H](n2nc(-c3ccc(Oc4ccc(F)cc4F)cc3)c(C(N)=O)c2N)C1
